Measurements taken from patent publication US11419806B2, “Prebiotic oral care methods using a saccharide” (Colgate-Palmolive Company, priority 2013, dated 2022).

Assays:
Assay type in all cases: cell-based
[1] = system: Capnocytophaga sputigena; assay: Twenty-four hour optical density growth in BHI; conditions: C sputigena
Outline: (§1)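 Overnight anaerobic cultures at 37° C were diluted in BHI to 1×10^7 CFU/ml, then mixed with each saccharide (myo-inositol, D-lactitol, D-turanose, N-acetyl-D-mannosamine; final 5–25 μmol/ml). After 24 h anaerobic incubation, optical density at 630 nm was compared with the start reading and with an unsupplemented control.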

[2] = system: Streptococcus gordonii; assay: Twenty-four hour optical density growth in BHI; conditions: S gordonii
[3] = system: Tannerella forsythia; assay: Twenty-four hour optical density growth in BHI; conditions: T forsythia
Outline: as §1

[4] = system: S. sanguinis; assay: Twenty-four hour optical density growth in BHI
[5] = system: Fusobacterium nucleatum; assay: Twenty-four hour optical density growth in BHI; conditions: F nucleatum
Outline: as §1

[6] = system: Streptococcus sobrinus; assay: Twenty-four hour optical density growth in BHI; conditions: S sobrinus
[7] = system: Actinomyces viscosus; assay: Twenty-four hour optical density growth in BHI; conditions: A viscosus
Outline: as §1

[8] = system: Veillonella parvula; assay: Twenty-four hour optical density growth in BHI; conditions: V parvula
Outline: as §1

[9] = system: Streptococcus mitis; assay: Twenty-four hour optical density growth in BHI; conditions: S mitis
[10] = system: Aggregatibacter actinomycetemcomitans; assay: Twenty-four hour optical density growth in BHI; conditions: A actinomycetemcomitans
[11] = system: Porphyromonas gingivalis; assay: Twenty-four hour optical density growth in BHI; conditions: P gingivalis
Outline: as §1

[12] = system: Streptococcus mutans; assay: Twenty-four hour optical density growth in BHI; conditions: for extent of growth: maximal OD630 over 24 hr divided by maximal OD of control (control = 1): S mutans
[13] = system: Actinomyces naeslundii; assay: Twenty-four hour optical density growth in BHI; conditions: A naeslundii
Outline: as §1

[14] = system: Prevotella intermedia; assay: Twenty-four hour optical density growth in BHI; conditions: P intermedia
Outline: as §1

[15] = system: Streptococcus salivarius; assay: Twenty-four hour optical density growth in BHI; conditions: S salivarius
[16] = system: beneficial oral bacteria and pathogenic oral bacteria; assay: Twenty-four hour optical density, overall prebiotic assessment; conditions: concentrations of 10, 20 and 25 μmol/ml
Description: Substrates that were able to increase the growth (or maximal growth density or extent of growth) of at least one of the above beneficial bacteria while not or only minimally increasing the growth (or maximal growth density) of the pathogenic bacteria are considered to be prebiotic compounds.
The extent of growth of the tested bacteria in response to selected saccharides (myo-inositol, D-lactitol, D-turanose and N-acetyl-D-mannosamine) was investigated by setting up growth curves in a nutritionally rich medium (brain heart infusion broth (BHI), Oxoid), over 24 hours. Late exponential growth phase liquid cultures were prepared by transferring the respective bacterium from blood agar plates to BHI and overnight incubation at 37° C. in an anaerobic atmosphere for A. viscosus, V. parvula, F. nucleatum, P. gingivalis, P. intermedia, T. forsythia, A. naeslundii, and C. sputigena, and in a 5% CO2 environment for S. salivarius, S. sanguinis, S. mitis, A. actinomycetemcomitans, S. mutans, S. sobrinus and S. gordonii. […]
For each combination of bacterium/saccharide, and for each of their respective controls (i.e. the particular bacterium in the nutritionally rich medium with no saccharide), the optical density was measured at 630 nm (OD630) at 0 h and 24 h (Thermo Scientific Multiskan Ascent). Additionally, the OD630 for combinations of bacterium/saccharides grown in a 5% CO2 environment were also measured every hour between 0 h and 9 h.
The experiment was carried out on three different days (thus providing 3 biological replicas) and on each day the experiment was carried out in quadruple (thus providing 4 technical replicas) for each combination of bacterium with saccharide and for each control. For each day and for each combination, the average (mean) of the values obtained (as detailed above) for the four technical replicas was calculated to provide a single value for each combination on each day. […]

OC[C@@H](O)[C@@H](O[C@H]1O[C@H](CO)[C@H](O)[C@H](O)[C@H]1O)[C@H](O)[C@@H](O)CO [D-Lactitol, 4-O-α-D-galactopyranosyl-D-glucitol]
extent of growth: maximal OD630 over 24 hr divided by maximal OD of control (control = 1) ([1]; 5 μmol/ml): 0.8996 | extent of growth: maximal OD630 over 24 hr divided by maximal OD of control (control = 1) ([1]; 10 μmol/ml): 0.8742 | extent of growth: maximal OD630 over 24 hr divided by maximal OD of control (control = 1) ([1]; 20 μmol/ml): 0.8416 | extent of growth: maximal OD630 over 24 hr divided by maximal OD of control (control = 1) ([1]; 25 μmol/ml): 0.8337 | extent of growth: maximal OD630 over 24 hr divided by maximal OD of control (control = 1) ([2]; 5 μmol/ml): 0.9828 | extent of growth: maximal OD630 over 24 hr divided by maximal OD of control (control = 1) ([2]; 10 μmol/ml): 0.9945 | extent of growth: maximal OD630 over 24 hr divided by maximal OD of control (control = 1) ([2]; 20 μmol/ml): 0.9931 | extent of growth: maximal OD630 over 24 hr divided by maximal OD of control (control = 1) ([2]; 25 μmol/ml): 1.0101 | extent of growth: maximal OD630 over 24 hr divided by maximal OD of control (control = 1) ([3]; 5 μmol/ml): 0.9351 | extent of growth: maximal OD630 over 24 hr divided by maximal OD of control (control = 1) ([3]; 10 μmol/ml): 0.9434 | extent of growth: maximal OD630 over 24 hr divided by maximal OD of control (control = 1) ([3]; 20 μmol/ml): 0.9426 | extent of growth: maximal OD630 over 24 hr divided by maximal OD of control (control = 1) ([3]; 25 μmol/ml): 0.9367 | extent of growth: maximal OD630 over 24 hr divided by maximal OD of control (control = 1) ([4]; 5 μmol/ml): 0.8901 | extent of growth: maximal OD630 over 24 hr divided by maximal OD of control (control = 1) ([4]; 10 μmol/ml): 0.9323 | extent of growth: maximal OD630 over 24 hr divided by maximal OD of control (control = 1) ([4]; 20 μmol/ml): 0.9356 | extent of growth: maximal OD630 over 24 hr divided by maximal OD of control (control = 1) ([4]; 25 μmol/ml): 0.9393 | extent of growth: maximal OD630 over 24 hr divided by maximal OD of control (control = 1) ([5]; 5 μmol/ml): 0.9876 | extent of growth: maximal OD630 over 24 hr divided by maximal OD of control (control = 1) ([5]; 10 μmol/ml): 0.9482 | extent of growth: maximal OD630 over 24 hr divided by maximal OD of control (control = 1) ([5]; 20 μmol/ml): 0.9034 | extent of growth: maximal OD630 over 24 hr divided by maximal OD of control (control = 1) ([5]; 25 μmol/ml): 0.8805 | extent of growth: maximal OD630 over 24 hr divided by maximal OD of control (control = 1) ([6]; 5 μmol/ml): 1.0650 | extent of growth: maximal OD630 over 24 hr divided by maximal OD of control (control = 1) ([6]; 10 μmol/ml): 1.0189 | extent of growth: maximal OD630 over 24 hr divided by maximal OD of control (control = 1) ([6]; 20 μmol/ml): 1.0335 | extent of growth: maximal OD630 over 24 hr divided by maximal OD of control (control = 1) ([6]; 25 μmol/ml): 1.0163 | extent of growth: maximal OD630 over 24 hr divided by maximal OD of control (control = 1) ([7]; 5 μmol/ml): 0.8614 | extent of growth: maximal OD630 over 24 hr divided by maximal OD of control (control = 1) ([7]; 10 μmol/ml): 0.9554 | extent of growth: maximal OD630 over 24 hr divided by maximal OD of control (control = 1) ([7]; 20 μmol/ml): 1.0275 | extent of growth: maximal OD630 over 24 hr divided by maximal OD of control (control = 1) ([7]; 25 μmol/ml): 1.0300 | extent of growth: maximal OD630 over 24 hr divided by maximal OD of control (control = 1) ([8]; 5 μmol/ml): 0.8722 | extent of growth: maximal OD630 over 24 hr divided by maximal OD of control (control = 1) ([8]; 10 μmol/ml): 0.8854 | extent of growth: maximal OD630 over 24 hr divided by maximal OD of control (control = 1) ([8]; 20 μmol/ml): 0.8909 | extent of growth: maximal OD630 over 24 hr divided by maximal OD of control (control = 1) ([8]; 25 μmol/ml): 0.9054 | extent of growth: maximal OD630 over 24 hr divided by maximal OD of control (control = 1) ([9]; 5 μmol/ml): 0.8694 | extent of growth: maximal OD630 over 24 hr divided by maximal OD of control (control = 1) ([9]; 10 μmol/ml): 0.9020 | extent of growth: maximal OD630 over 24 hr divided by maximal OD of control (control = 1) ([9]; 20 μmol/ml): 0.9151 | extent of growth: maximal OD630 over 24 hr divided by maximal OD of control (control = 1) ([9]; 25 μmol/ml): 0.8839 | extent of growth: maximal OD630 over 24 hr divided by maximal OD of control (control = 1) ([10]; 5 μmol/ml): 0.7044 | extent of growth: maximal OD630 over 24 hr divided by maximal OD of control (control = 1) ([10]; 10 μmol/ml): 0.7052 | extent of growth: maximal OD630 over 24 hr divided by maximal OD of control (control = 1) ([10]; 20 μmol/ml): 0.6952 | extent of growth: maximal OD630 over 24 hr divided by maximal OD of control (control = 1) ([10]; 25 μmol/ml): 0.7095 | extent of growth: maximal OD630 over 24 hr divided by maximal OD of control (control = 1) ([11]; 5 μmol/ml): 0.9615 | extent of growth: maximal OD630 over 24 hr divided by maximal OD of control (control = 1) ([11]; 10 μmol/ml): 0.9989 | extent of growth: maximal OD630 over 24 hr divided by maximal OD of control (control = 1) ([11]; 20 μmol/ml): 0.9706 | extent of growth: maximal OD630 over 24 hr divided by maximal OD of control (control = 1) ([11]; 25 μmol/ml): 1.0115 | stimulation of growth of S. mutans ([12]; Example 2): does not stimulate growth | extent of growth: maximal OD630 over 24 hr divided by maximal OD of control (control = 1) ([12]; 5 μmol/ml): 0.9466 | extent of growth: maximal OD630 over 24 hr divided by maximal OD of control (control = 1) ([12]; 10 μmol/ml): 0.9230 | extent of growth: maximal OD630 over 24 hr divided by maximal OD of control (control = 1) ([12]; 20 μmol/ml): 0.9036 | extent of growth: maximal OD630 over 24 hr divided by maximal OD of control (control = 1) ([12]; 25 μmol/ml): 0.9149 | extent of growth: maximal OD630 over 24 hr divided by maximal OD of control (control = 1) ([13]; 5 μmol/ml): 1.0156 | extent of growth: maximal OD630 over 24 hr divided by maximal OD of control (control = 1) ([13]; 10 μmol/ml): 1.0334 | extent of growth: maximal OD630 over 24 hr divided by maximal OD of control (control = 1) ([13]; 20 μmol/ml): 1.0688 | extent of growth: maximal OD630 over 24 hr divided by maximal OD of control (control = 1) ([13]; 25 μmol/ml): 1.0686 | extent of growth: maximal OD630 over 24 hr divided by maximal OD of control (control = 1) ([14]; 5 μmol/ml): 0.9178 | extent of growth: maximal OD630 over 24 hr divided by maximal OD of control (control = 1) ([14]; 10 μmol/ml): 0.9210 | extent of growth: maximal OD630 over 24 hr divided by maximal OD of control (control = 1) ([14]; 20 μmol/ml): 0.9185 | extent of growth: maximal OD630 over 24 hr divided by maximal OD of control (control = 1) ([14]; 25 μmol/ml): 0.9036 | extent of growth: maximal OD630 over 24 hr divided by maximal OD of control (control = 1) ([15]; 5 μmol/ml): 1.1349 | extent of growth: maximal OD630 over 24 hr divided by maximal OD of control (control = 1) ([15]; 10 μmol/ml): 1.3489 | extent of growth: maximal OD630 over 24 hr divided by maximal OD of control (control = 1) ([15]; 20 μmol/ml): 1.3431 | extent of growth: maximal OD630 over 24 hr divided by maximal OD of control (control = 1) ([15]; 25 μmol/ml): 1.3159 | prebiotic effects (extent of growth, threshold value 1.25) [16]: exhibited prebiotic effects
